Publication PMC11220654, “A Frog Skin‐Derived Peptide Targeting SCD1 Exerts Radioprotective Effects Against Skin Injury by Inhibiting STING‐Mediated Inflammation” (Advanced Science, 2024)

Tests used:
Format in all cases: cell-based, human
irradiated HaCaT cells = assay: Autophagy, mRFP-GFP-LC3 infection study and LC3 II Western blotting; settings: 15 µM RIFSP-2, Western blotting
Excerpt: Figure 4 MUFAs facilitate ionizing radiation‐induced STING activation, which is disrupted by RIFSP‐2. A) Bioinformatic analysis of the connection between specific binding proteins of RIFSP‐2 (green nodes) and STING (red nodes) in irradiated skin cells. B) Detection of the phosphorylation of STING in RIFSP‐2‐treated and irradiated HaCaT cells through IP analysis. C) Detection of the phosphorylation of TBK1 in RIFSP‐2‐treated primary skin cells from STING wild type mice and depletion ones through Western blotting analysis. D) Investigation of the interaction between STING and RIFSP‐2 in irradiated HaCaT cells based on the established Avidin‐Biotin‐RIFSP‐2 system. E) Volcano plots of differences between lipid class in irradiated HaCaT cells pretreated with RIFSP‐2 or not. F) Influence of LPC (18:1) and RIFSP‐2 in STING downstream signals in irradiated HaCaT cells through Western blotting analysis. G) Influence of LPC (18:1) and RIFSP‐2 in STING downstream inflammatory factors in irradiated HaCaT and RAW 264.7 cells through ELISA assays. […] J) Alteration of biomarkers for autophagy and pyroptosis in irradiated HaCaT cells pretreated with 15 µM RIFSP‐2 in combination with H151 or MF438, detected by Western blotting. *P < 0.05 and **P < 0.01, compared with the control group. […]

irradiated skin cells = assay: LDH release and JC-1 staining with H151; settings: RIFSP-2 15 µM
Excerpt: Next, we investigated whether suppression of the SCD1‐MUFA‐STING axis by RIFSP‐2 accounts for its protective effect against radiation injury in skin cells. […] Besides, Sting knockout dramatically limited the clonogenic formation ability after administration of RIFSP‐2 (Figure S4F, Supporting Information).
Figure 5 RIFSP‐2 mitigates radiation injury in a STING‐related manner. A) Cell proliferation and death assays for influence of RIFSP‐2 in primary skin cells from STING‐depleted and wild‐type mice detected by CCK‐8 and LDH analysis. B) LDH analysis of irradiated and nonirradiated skin cells pretreated with 15 µM RIFSP‐2 in combination with H151 or not. […]
A clonogenic survival assay of skin cells was performed as previously reported (1). […] Colonies consisting of 50 or more cells were counted as a clone. The relative clonogenic survival fraction was calculated using ImageJ software as previously reported […]
Cells were seeded in a 96-well plate at a density of 1 X 10^4 cells per well. […] In vitro viability was measured using the Cell Counting Kit-8 (CCK-8) (Dojindo Laboratories, Kumamoto, Japan).
Optical density was measured at 450 nm using a microplate reader (Biotek, Winooski, VT).
Cell death was measured by the level of LDH released into the supernatant using an LDH cytotoxicity assay kit (Beyotime, Nantong, China) according to the manufacturer’s instructions. […]

[1] = system: STING phosphorylation in irradiated skin cells; assay: STING phosphorylation by IP analysis; settings: irradiated skin cells (HaCaT)
Excerpt: Considering the localization of RIFSP‐2 in ER, we then investigated the potential connection between RIFSP‐2 and STING. First, we adopted a proteomic analysis to investigated the interactomes of STING in HaCaT cells, and identified 136 specific proteins in response to radiation. Then, strong connections between specific interactomes for RIFSP‐2 and STING in irradiated skin cells were established in protein interactive analysis, with confidence score > 0.7 (high confidence) (Figure 4A).
Figure 4 MUFAs facilitate ionizing radiation‐induced STING activation, which is disrupted by RIFSP‐2. A) Bioinformatic analysis of the connection between specific binding proteins of RIFSP‐2 (green nodes) and STING (red nodes) in irradiated skin cells. B) Detection of the phosphorylation of STING in RIFSP‐2‐treated and irradiated HaCaT cells through IP analysis. C) Detection of the phosphorylation of TBK1 in RIFSP‐2‐treated primary skin cells from STING wild type mice and depletion ones through Western blotting analysis. […] J) Alteration of biomarkers for autophagy and pyroptosis in irradiated HaCaT cells pretreated with 15 µM RIFSP‐2 in combination with H151 or MF438, detected by Western blotting. *P < 0.05 and **P < 0.01, compared with the control group. […]
Cells were subjected to indicated treatments. […] The protein level was detected by the indicated antibodies with Western blotting analysis.

skin cells [2] = assay: BODIPY 581/591 C11 probe (ferroptosis) and AV/PI staining
Experimental: Figure 3 RIFSP‐2 restrained SCD1‐mediated biogenesis of MUFA in irradiated skin cells. A) Schematic showing the proteomic analysis performed to investigate the interactome of RIFSP‐2 in irradiated skin cells, as determined by liquid chromatography with tandem mass spectrometry (LC–MS/MS), based on the Avidin‐Biotin‐RIFSP‐2 system. B) Bradford staining of proteins pulled down with Biotin‐RIFSP‐2 and Venn diagram showing common and specific interactomes detected by LC–MS/MS and representative proteins. C) The enriched functions of RIFSP‐2 interactomes in irradiated skin cells based on Gene Ontology (GO) molecular function analysis. D) Colocalization analysis showing FITC‐RIFSP‐2 (green) and ER‐Tracker (red) in irradiated HaCaT cells. E) Changes in neutral lipid droplet formation in irradiated skin cells treated with RIFSP‐2 detected via BODIPY 493/503 probe staining. F) Verification of the interaction between RIFSP‐2 and SCD1 through immunoprecipitation (IP) analysis. G) Molecular simulation of the interaction between RIFSP‐2 and SCD1. […] M–P) Influence of the SCD1 inhibitor MF438 on the neutral lipid droplet formation, […], as detected by BODIPY 493/503 probe staining, BODIPY 581/591 C11 probe staining and AV/PI staining. *P < 0.05 and **P < 0.01, compared with the control group. […]

skin cells [3] = assay: BODIPY 493/503 probe staining, neutral lipid droplets; settings: pretreatment
Experimental: Figure 3 RIFSP‐2 restrained SCD1‐mediated biogenesis of MUFA in irradiated skin cells. A) Schematic showing the proteomic analysis performed to investigate the interactome of RIFSP‐2 in irradiated skin cells, as determined by liquid chromatography with tandem mass spectrometry (LC–MS/MS), based on the Avidin‐Biotin‐RIFSP‐2 system. B) Bradford staining of proteins pulled down with Biotin‐RIFSP‐2 and Venn diagram showing common and specific interactomes detected by LC–MS/MS and representative proteins. C) The enriched functions of RIFSP‐2 interactomes in irradiated skin cells based on Gene Ontology (GO) molecular function analysis. D) Colocalization analysis showing FITC‐RIFSP‐2 (green) and ER‐Tracker (red) in irradiated HaCaT cells. E) Changes in neutral lipid droplet formation in irradiated skin cells treated with RIFSP‐2 detected via BODIPY 493/503 probe staining. F) Verification of the interaction between RIFSP‐2 and SCD1 through immunoprecipitation (IP) analysis. G) Molecular simulation of the interaction between RIFSP‐2 and SCD1. […] M–P) Influence of the SCD1 inhibitor MF438 on the neutral lipid droplet formation, ferroptosis, and apoptosis of irradiated skin cells pretreated with RIFSP‐2, as detected by BODIPY 493/503 probe staining, BODIPY 581/591 C11 probe staining and AV/PI staining. *P < 0.05 and **P < 0.01, compared with the control group. […]

| Compound | influence of pretreatment on the increase in LC3 II levels induced by RIFSP-2 (irradiated HaCaT cells) | LDH release (irradiated skin cells) | STING phosphorylation [1] | influence of pretreatment on the RIFSP-2 effects on ferroptosis and AV staining (skin cells [2]) | formation of neutral lipid droplets (skin cells [3]) |
| --- | --- | --- | --- | --- | --- |
| CCc1ccc(NC(=O)Nc2c[nH]c3ccccc23)cc1 [H151] | not | attenuated LDH release | – | – | – |
| Cc1nnc(-c2ccc(N3CCC(Oc4ccccc4C(F)(F)F)CC3)nn2)s1 [MF‐438] | dramatically limited the increase in LC3 II levels | – | significant reduction in STING phosphorylation | diminished these effects | effectively promoted the formation of neutral lipid droplets |
